# Data published in patent publication US12070033B1, “Aquatic herbicide having non-herbicidal functional ingredients” (SePRO Corporation, priority 2019, dated 2024).
# Tested on: hydrilla
# Experiment: Total phosphorus extracted from hydrilla and from the water in which it was located
# Format: in vivo, Hydrilla verticillata
# Conditions: 5 ppm dipotassium endothall
# Method: Turning now to FIG. 7, treatment of aquatic weeds with the aquatic herbicidal formulation results in both an increased release of nutrients, such as phosphorus, from treated plants and a reduction from the water column of those nutrients released. In one experiment, total phosphorus was extracted from hydrilla and from water in which the hydrilla was located. In one test group, the hydrilla was untreated (control group). In a second test group, the hydrilla was treated with Formulation 1 (5 ppm dipotassium endothall) and, in a third test group, the hydrilla was treated with Aquathol® K (5 ppm dipotassium endothall). In the untreated control group, the plants remained healthy and pulled available phosphorus from the water column, resulting in a lower amount of phosphorus in the water (indicated by the darker shading at the bottom of each column) as compared to groups treated with Formulation 1 and Aquathol® K (as indicated by the lighter shading at the top of each column).
smiles,measurement,value
O=C([O-])[C@@H]1[C@H](C(=O)[O-])[C@H]2CC[C@@H]1O2.[K+].[K+] [dipotassium endothall],plant's phosphorus released into the water,approximately 27%
